Results taken from paper PMC10174618, “Monoterpenoid aryl hydrocarbon receptor allosteric antagonists protect against ultraviolet skin damage in female mice” (Nature Communications, 2023).

What was measured:
Assay in all cases: biochemical
Set-up in all cases: KINOMEscan scanMAX active site-directed competition binding assay, percent of control, 468 kinases
Conditions in all cases: competition binding, percent of control
ABL1-nonphosphorylated = target: T1, ABL1-nonphosphorylated (Homo sapiens, UniProt P00519)
T1 construct: nonphosphorylated
Summary of the method: (§1)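 KINOMEscan active site-directed competition binding assay against 468 human kinases with 100 μM S-carvone. Binding expressed as % of control, with 35% of control as the inhibition threshold.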

MYLK = MYLK (Homo sapiens, UniProt Q15746)
Summary of the method: as §1

ERK4 = target: T2, ERK4 (Homo sapiens, UniProt P31152)
T2 construct: gene MAPK4
Summary of the method: as §1

p38-beta = target: T3, p38-beta (Homo sapiens, UniProt Q15759)
T3 construct: gene MAPK11
Summary of the method: as §1

[1] = target: T4, TYK2(JH1domain-catalytic) (Homo sapiens, UniProt P29597)
T4 construct: JH1domain-catalytic
Summary of the method: as §1

SIK = target: T5, SIK (Homo sapiens, UniProt P57059)
T5 construct: gene SIK1
Summary of the method: as §1

S6K1 = target: T6, S6K1 (Homo sapiens, UniProt P23443)
T6 construct: gene RPS6KB1
Summary of the method: as §1

JNK3 = target: T7, JNK3 (Homo sapiens, UniProt P53779)
T7 construct: gene MAPK10
Summary of the method: as §1

LZK = target: T8, LZK (Homo sapiens, UniProt O43283)
T8 construct: gene MAP3K13
Summary of the method: as §1

GSK3A = GSK3A (Homo sapiens, UniProt P49840)
Summary of the method: as §1

FLT3(D835V) = FLT3(D835V) (Homo sapiens, UniProt P36888, D835V)
Summary of the method: as §1

PRKCE = PRKCE (Homo sapiens, UniProt Q02156)
Summary of the method: as §1

GRK3 = GRK3 (Homo sapiens, UniProt P35626)
Summary of the method: as §1

IKK-alpha = target: T9, IKK-alpha (Homo sapiens, UniProt O15111)
T9 construct: gene CHUK
Summary of the method: as §1

PKN2 = PKN2 (Homo sapiens, UniProt Q16513)
Summary of the method: as §1

PDGFRB = PDGFRB (Homo sapiens, UniProt P09619)
Summary of the method: as §1

AKT2 = AKT2 (Homo sapiens, UniProt P31751)
Summary of the method: as §1

[2] = target: T10, RPS6KA5(Kin.Dom.1-N-terminal) (Homo sapiens, UniProt O75582)
T10 construct: Kin.Dom.1-N-terminal
Summary of the method: as §1

CASK = CASK (Homo sapiens, UniProt O14936)
Summary of the method: as §1

CAMK1G = CAMK1G (Homo sapiens, UniProt Q96NX5)
Summary of the method: as §1

PAK6 = PAK6 (Homo sapiens, UniProt Q9NQU5)
Summary of the method: as §1

Sequence of PAK6 (Q9NQU5 whole entry): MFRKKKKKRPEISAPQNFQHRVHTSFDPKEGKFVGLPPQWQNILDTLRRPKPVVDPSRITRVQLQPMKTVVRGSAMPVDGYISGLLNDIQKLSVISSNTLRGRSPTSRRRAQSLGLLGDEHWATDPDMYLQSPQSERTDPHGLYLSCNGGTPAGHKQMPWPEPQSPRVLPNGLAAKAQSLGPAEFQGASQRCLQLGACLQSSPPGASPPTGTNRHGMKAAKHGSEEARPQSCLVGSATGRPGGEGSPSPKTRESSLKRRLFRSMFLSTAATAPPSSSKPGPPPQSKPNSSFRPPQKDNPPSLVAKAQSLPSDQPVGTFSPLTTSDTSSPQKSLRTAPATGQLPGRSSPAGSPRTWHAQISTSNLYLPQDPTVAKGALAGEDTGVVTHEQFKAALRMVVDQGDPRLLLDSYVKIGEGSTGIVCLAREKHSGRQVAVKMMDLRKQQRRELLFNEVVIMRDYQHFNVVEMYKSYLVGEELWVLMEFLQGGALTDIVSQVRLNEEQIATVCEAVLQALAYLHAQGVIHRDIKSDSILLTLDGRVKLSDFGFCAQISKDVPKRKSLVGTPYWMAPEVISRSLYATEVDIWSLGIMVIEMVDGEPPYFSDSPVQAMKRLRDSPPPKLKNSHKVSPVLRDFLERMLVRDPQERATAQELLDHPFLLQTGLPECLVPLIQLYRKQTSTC
Sequence of MYLK (Q15746 whole entry): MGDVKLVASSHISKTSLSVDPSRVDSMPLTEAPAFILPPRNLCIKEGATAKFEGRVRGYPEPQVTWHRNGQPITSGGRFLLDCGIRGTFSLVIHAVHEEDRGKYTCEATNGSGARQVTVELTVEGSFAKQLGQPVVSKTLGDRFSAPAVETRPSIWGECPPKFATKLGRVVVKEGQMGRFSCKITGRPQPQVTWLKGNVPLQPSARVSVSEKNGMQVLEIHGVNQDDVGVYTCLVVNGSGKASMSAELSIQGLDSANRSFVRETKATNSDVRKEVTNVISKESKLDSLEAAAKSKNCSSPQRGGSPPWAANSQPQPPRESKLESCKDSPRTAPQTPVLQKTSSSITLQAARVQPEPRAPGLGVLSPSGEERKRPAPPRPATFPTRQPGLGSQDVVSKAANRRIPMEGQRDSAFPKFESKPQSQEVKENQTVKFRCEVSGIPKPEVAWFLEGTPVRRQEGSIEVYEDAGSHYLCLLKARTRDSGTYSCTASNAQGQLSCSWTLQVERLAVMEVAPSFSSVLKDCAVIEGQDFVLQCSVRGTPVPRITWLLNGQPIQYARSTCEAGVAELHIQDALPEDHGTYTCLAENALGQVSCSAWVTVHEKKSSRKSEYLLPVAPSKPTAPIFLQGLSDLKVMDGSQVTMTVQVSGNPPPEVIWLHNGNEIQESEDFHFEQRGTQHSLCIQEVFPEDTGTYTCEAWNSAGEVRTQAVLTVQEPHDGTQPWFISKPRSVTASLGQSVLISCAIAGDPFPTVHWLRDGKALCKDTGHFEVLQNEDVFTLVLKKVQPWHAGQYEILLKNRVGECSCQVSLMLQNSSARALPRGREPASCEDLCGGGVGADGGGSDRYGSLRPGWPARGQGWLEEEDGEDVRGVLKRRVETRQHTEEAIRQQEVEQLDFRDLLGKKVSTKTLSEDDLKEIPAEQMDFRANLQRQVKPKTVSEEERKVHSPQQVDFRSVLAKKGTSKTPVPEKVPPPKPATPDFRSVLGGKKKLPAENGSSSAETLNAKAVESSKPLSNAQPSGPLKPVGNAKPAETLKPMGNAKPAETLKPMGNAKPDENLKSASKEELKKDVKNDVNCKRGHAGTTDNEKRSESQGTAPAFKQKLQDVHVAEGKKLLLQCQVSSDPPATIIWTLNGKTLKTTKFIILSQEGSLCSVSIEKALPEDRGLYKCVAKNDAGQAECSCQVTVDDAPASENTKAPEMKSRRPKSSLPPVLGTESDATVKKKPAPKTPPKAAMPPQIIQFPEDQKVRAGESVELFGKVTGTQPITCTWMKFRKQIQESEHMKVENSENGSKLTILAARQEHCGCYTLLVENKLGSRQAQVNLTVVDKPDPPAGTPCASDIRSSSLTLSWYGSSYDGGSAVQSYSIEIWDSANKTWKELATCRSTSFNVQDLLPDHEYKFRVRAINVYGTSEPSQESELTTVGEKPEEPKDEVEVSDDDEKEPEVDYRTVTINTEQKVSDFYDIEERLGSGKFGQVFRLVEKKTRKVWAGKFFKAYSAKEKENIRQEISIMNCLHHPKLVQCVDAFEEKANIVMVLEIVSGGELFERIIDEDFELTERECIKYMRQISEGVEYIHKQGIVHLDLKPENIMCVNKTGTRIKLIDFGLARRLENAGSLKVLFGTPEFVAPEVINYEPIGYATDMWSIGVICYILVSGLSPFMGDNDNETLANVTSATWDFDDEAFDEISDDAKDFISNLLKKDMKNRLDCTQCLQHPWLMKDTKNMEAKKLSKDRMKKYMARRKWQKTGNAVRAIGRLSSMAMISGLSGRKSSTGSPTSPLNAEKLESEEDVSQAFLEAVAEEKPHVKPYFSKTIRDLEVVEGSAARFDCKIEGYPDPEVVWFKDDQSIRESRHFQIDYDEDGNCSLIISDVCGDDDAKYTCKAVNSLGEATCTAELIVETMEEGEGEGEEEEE
T9 sequence (O15111 whole entry): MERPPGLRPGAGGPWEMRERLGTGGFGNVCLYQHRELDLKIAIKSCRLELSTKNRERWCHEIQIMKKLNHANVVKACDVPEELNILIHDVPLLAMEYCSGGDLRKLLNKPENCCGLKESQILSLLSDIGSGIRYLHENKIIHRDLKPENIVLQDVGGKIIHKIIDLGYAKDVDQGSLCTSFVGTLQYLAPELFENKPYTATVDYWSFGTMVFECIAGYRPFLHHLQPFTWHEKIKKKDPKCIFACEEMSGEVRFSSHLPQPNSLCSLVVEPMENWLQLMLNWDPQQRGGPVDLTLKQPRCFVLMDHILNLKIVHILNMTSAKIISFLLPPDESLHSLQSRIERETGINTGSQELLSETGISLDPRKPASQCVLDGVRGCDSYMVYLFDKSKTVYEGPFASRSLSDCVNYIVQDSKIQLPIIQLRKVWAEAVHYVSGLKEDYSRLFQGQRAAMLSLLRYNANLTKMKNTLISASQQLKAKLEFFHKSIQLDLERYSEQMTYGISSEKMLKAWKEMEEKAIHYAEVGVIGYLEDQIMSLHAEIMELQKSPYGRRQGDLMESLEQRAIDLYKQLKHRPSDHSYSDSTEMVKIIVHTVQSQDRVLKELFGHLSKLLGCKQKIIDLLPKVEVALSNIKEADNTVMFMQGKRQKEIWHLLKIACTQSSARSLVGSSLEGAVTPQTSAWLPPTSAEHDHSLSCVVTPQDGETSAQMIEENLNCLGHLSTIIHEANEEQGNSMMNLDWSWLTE
Sequence of CASK (O14936 whole entry): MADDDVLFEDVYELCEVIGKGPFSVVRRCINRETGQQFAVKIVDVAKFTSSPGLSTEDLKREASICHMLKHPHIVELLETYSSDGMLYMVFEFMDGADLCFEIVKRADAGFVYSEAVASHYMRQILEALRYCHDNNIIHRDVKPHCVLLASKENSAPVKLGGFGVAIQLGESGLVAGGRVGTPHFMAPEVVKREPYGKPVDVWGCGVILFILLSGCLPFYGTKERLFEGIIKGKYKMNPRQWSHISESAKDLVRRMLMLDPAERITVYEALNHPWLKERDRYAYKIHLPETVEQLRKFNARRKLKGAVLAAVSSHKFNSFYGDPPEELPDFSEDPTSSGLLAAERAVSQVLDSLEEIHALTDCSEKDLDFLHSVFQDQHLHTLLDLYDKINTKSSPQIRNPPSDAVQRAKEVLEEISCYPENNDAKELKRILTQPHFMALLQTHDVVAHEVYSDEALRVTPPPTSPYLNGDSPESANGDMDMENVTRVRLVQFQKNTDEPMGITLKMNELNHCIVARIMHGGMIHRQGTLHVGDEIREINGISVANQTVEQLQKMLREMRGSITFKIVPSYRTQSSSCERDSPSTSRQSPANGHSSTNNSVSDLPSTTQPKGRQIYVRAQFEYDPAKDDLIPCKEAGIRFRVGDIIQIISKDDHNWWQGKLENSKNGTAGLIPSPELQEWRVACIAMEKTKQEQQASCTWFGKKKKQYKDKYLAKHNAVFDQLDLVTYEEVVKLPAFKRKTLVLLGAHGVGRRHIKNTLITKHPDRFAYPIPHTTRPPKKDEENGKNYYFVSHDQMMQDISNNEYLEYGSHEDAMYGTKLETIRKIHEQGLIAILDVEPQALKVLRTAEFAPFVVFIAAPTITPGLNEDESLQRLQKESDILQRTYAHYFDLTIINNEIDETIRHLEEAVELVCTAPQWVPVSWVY
Sequence of GRK3 (P35626 whole entry): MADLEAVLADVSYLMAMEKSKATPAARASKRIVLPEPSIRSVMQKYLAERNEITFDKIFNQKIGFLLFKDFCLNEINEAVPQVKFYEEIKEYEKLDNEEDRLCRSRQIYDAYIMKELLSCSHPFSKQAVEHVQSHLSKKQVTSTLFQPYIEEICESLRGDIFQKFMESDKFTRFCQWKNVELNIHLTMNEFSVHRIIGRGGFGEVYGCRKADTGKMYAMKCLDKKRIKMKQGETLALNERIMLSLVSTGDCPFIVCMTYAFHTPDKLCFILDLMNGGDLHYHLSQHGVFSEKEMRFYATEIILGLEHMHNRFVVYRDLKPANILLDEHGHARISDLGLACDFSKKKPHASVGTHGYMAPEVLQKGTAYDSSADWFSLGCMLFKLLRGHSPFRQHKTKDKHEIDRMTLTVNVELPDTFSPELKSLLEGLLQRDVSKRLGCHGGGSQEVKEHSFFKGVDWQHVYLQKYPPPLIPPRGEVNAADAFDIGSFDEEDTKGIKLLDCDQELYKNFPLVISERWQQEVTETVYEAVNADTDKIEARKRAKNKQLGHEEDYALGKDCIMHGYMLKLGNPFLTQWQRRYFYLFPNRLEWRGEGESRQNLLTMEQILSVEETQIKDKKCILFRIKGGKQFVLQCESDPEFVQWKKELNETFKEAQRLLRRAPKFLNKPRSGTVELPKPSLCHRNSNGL

## C=C(C)[C@H]1CC=C(C)C(=O)C1 [S-carvone]
ABL1-nonphosphorylated
  remaining binding at 100 µM: 76%
MYLK
  remaining binding at 100 µM: 51%
ERK4
  remaining binding at 100 µM: 89%
p38-beta
  remaining binding at 100 µM: 98%
[1]
  remaining binding at 100 µM: 58%
SIK
  remaining binding at 100 µM: 67%
S6K1
  remaining binding at 100 µM: 93%
JNK3
  remaining binding at 100 µM: 88%
LZK
  remaining binding at 100 µM: 78%
GSK3A
  remaining binding at 100 µM: 100%
FLT3(D835V)
  remaining binding at 100 µM: 77%
PRKCE
  remaining binding at 100 µM: 94%
GRK3
  remaining binding at 100 µM: 58%
IKK-alpha
  remaining binding at 100 µM: 72%
PKN2
  remaining binding at 100 µM: 83%
PDGFRB
  remaining binding at 100 µM: 69%
AKT2
  remaining binding at 100 µM: 86%
[2]
  remaining binding at 100 µM: 84%
CASK
  remaining binding at 100 µM: 83%
CAMK1G
  remaining binding at 100 µM: 89%
PAK6
  remaining binding at 100 µM: 98%
